According to US11883505B2, “Anticancer drug-containing plant virus particles” (CASE WESTERN RESERVE UNIVERSITY, priority 2015, dated 2024):

What was measured:
MDA-MB-231 xenografts = assay: Treatment of MDA-MB-231 xenografts in NCR nu/nu mice; type: in vivo, mouse; settings: 1.0 mg/kg (normalized to platinum or TMV content), weekly intravenous bolus
Method: FIGS. 7A-C show treatment of MDA-MB-231 xenografts in an athymic mouse model. […] Tumor volumes were monitored daily, and total volume was normalized to initial tumor size at time of treatment. Each treatment group consists of 5 animals (n=5); *indicates p<0.05.
All animal studies were carried using IACUC-approved procedures. […] The dosage was normalized to platinum or TMV content.

[1] = system: A2780/CP70 (ovarian cancer resistant to cisplatin); assay: MTT assay, ovarian cancer cells resistant to cisplatin; type: cell-based, human; settings: ovarian cancer cells resistant to cisplatin treatment
Method: (§1) The assay was performed as per manufacturer's recommendation; a BioTek Synergy HT multidetection microplate reader was used for read-out.

[2] = system: OV81.2 (ovarian cancer, primary patient cells); assay: MTT assay, primary patient ovarian cancer cells; type: cell-based, human; settings: primary patient cells OV81.2
Method: as §1

N.N.[Cl][Pt][Cl] [cisplatin]
tumor growth / treatment effect (MDA-MB-231 xenografts): ineffective

phenanthriplatin
efficacy versus cisplatin [1]: enhanced efficacy
efficacy versus cisplatin [2]: Enhanced efficacy
tumor growth / treatment effect (MDA-MB-231 xenografts): ineffective
